Experimental data: patent publication US20160051567A1, “PREVENTION AND TREATMENT OF KIDNEY DAMAGE” (METSELEX, INC., priority 2013, published 2016)
Entries after “also recorded” stand apart in the source; their conditions may differ.

Assays:
[1] = test system: rat model of AKI; test: Rat model of AKI (warm ischemia reperfusion), blood urea levels; assay type: in vivo; conditions: 400 mg/kg/day intraperitoneal
Procedure: (§1) Rat model of AKI: All experiments were performed in accordance with the Institutional Animal Care and Use Committee. Six to eight week old Sprague-Dawley rats were anaesthetized by isoflurane gas, a midline abdominal incision was made, and bilateral renal pedicles were clamped for 45 minutes maintaining body temperature at 37° C. After removing the clamps, the abdomen was closed in two layers by using 4-0 absorbable sutures and Reflex 9 mm clips. Blood samples were obtained daily by tail vein puncture. Blood urea levels were measured by the improved Jung method using the QuantiChrom™ Urea Assay Kit as per manufacturer's protocol. Kidneys were harvested five days following surgery.
(§2) Administration of TUDCA: 200 mg/mL of TUDCA (Sigma) was dissolved in phosphate buffered saline at pH 7.5. 400 mg/kg of TUDCA or equal volume of vehicle was administered to rats by daily intraperitoneal injection from three days prior to surgery […] to five days (day 5) following surgery. The TUDCA dose was based on previous studies and its solubility at physiological pH.

[2] = test system: JNK; test: Western blot for p-JNK in kidney after AKI; assay type: in vivo; conditions: rat kidney after AKI, TUDCA vs vehicle group
Procedure: as §1
(§3) Administration of TUDCA: 200 mg/mL of TUDCA (Sigma) was dissolved in phosphate buffered saline at pH 7.5. […]
(§4) Protein extraction: Frozen kidney tissue was ground in liquid nitrogen using a pestle and mortar. […] The amount of protein present in the solution was quantified by the Bicinchoninic Acid Protein Assay kit as per manufacturer's protocol.
(§5) Western blot analysis: 20 μg of protein was mixed with SDS-PAGE sample buffer, boiled for 5 minutes, electrophoresed on a 12% Tris-HCl SDS-PAGE gel for 1 hour at 200 V, and electroblotted onto a nitrocellulose membrane. […] The immunoblot was detected using SuperSignal West Femto Maximum Sensitivity Substrate Kit. […]

[3] = test system: caspase-12; test: Western blot for active caspase-12 in kidney after AKI; assay type: in vivo; conditions: rat kidney after AKI, TUDCA- vs vehicle-treated rats
Procedure: as §1, §3, §4, §5

[4] = test system: JNK; test: Western blot for JNK in RPTE cells after cryopreservation injury; assay type: cell-based, human; conditions: 100 and 150 μM
Procedure: (§6) Cell culture: RPTE cells were grown in Renal Epithelial Cell Basal Medium (REBM) with full supplements at 37° C. in 5% CO2 incubator as per supplier's instructions. RPTE cells were able to proliferate for 6-8 passages under the culture conditions.
(§7) Cryopreservation injury: We have utilized a published cell culture model of cryopreservation injury. In brief, RPTE cells were grown to 80% confluence in the complete medium containing TUDCA or vehicle. The complete medium was then replaced with University of Wisconsin solution containing TUDCA or vehicle. The culture plates were subsequently incubated in a temperature-regulated refrigerator at 4° C. for 48 hours. […]
as §4, §5

[5] = test system: caspase-3; test: Caspase-3 activity assay in RPTE cells after cryopreservation injury; assay type: cell-based, human; conditions: 150-600 μM, dose-dependent, p<0.05
Procedure: as §6, §7, §4
Caspase-3 activity assay: The caspase-3 activity in kidney and RPTE extracts was quantified using Apo-One® Homogeneous Caspase-3/7 Assay kit as per the manufacturer's protocol. […] Fluorescence was measured by Spectramax M12 fluorescent plate reader (Molecular Devices) using wavelengths of 485 nmEx/520 nmEm. […]

[6] = test system: rat model of AKI; test: Histological injury score (PAS stain) of kidney sections after AKI; assay type: in vivo; conditions: five days after AKI, 400 mg/kg/day
Procedure: as §1, §2
(§8) Histology and TUNEL assay: 4% paraformaldehyde-fixed, paraffin-embedded 5 μm kidney sections were stained with Periodic acid-Schiff (PAS) stain using standard methods. Histological examination was performed by a renal pathologist in a blinded fashion. Histological injury was scored based on the percentage of tubular cell necrosis, dilation, and cell detachment as per the PAS protocol. Reagents for the PAS assay were purchased from Sigma-Aldrich (St. Louis, Mo.) and the accompanying protocol was used. […] Apoptotic cells were detected by TUNEL assay using an APO-DIRECT™ kit as per manufacturer's protocol. The average injury score and percentage of TUNEL-positive cells from the renal cortex (superficial and deep), medulla (outer and inner), and papilla were counted and calculated separately and averaged to obtain the total score. […]

[7] = test system: caspase-9; test: Caspase-9 activity assay in RPTE cells after cryopreservation injury; assay type: cell-based, human; conditions: 100 μM and 150 μM, p<0.05
Procedure: as §6
Cryopreservation injury: We have utilized a published cell culture model of cryopreservation injury. In brief, RPTE cells were grown to 80% confluence in the complete medium containing TUDCA or vehicle. The complete medium was then replaced with University of Wisconsin solution containing TUDCA or vehicle. The culture plates were subsequently incubated in a temperature-regulated refrigerator at 4° C. for 48 hours. To simulate warm reperfusion phase of kidney transplantation, University of Wisconsin solution was replaced with complete medium containing TUDCA or vehicle, and cells were cultured for an additional 24 hours at 37° C. We used 100 μM or 150 μM of TUDCA for these experiments.
Caspase-9 Assay: The caspase-9 activity was measured in RPTE cells using Caspase-9 Assay kit. RPTE cells were suspended in 50 μL of chilled Cell Lysis Buffer and incubated on ice for 10 minutes. Subsequently, 50 μL of 2× Reaction Buffer and 5 μL of 1 mM LEHD-AFC substrate was added to each sample and the mixtures were incubated at 37° C. for 2 hours. The caspase-9 activity was quantified by measuring […].

[8] = test system: p38; test: Western blot for p-p38 in kidney after AKI; assay type: in vivo; conditions: rat kidney after AKI, TUDCA vs vehicle group
Procedure: as §1, §3, §4, §5

[9] = test system: ERK1/2; test: Western blot for ERK1/2 in kidney after AKI; assay type: in vivo; conditions: rat kidney after AKI, vs controls, p=0.29
Procedure: as §1, §3, §4, §5

[10] = test system: caspase-8; test: Western blot for caspase-8 in RPTE cells after cryopreservation injury; assay type: cell-based, human
Procedure: Cell culture: RPTE cells were grown in Renal Epithelial Cell Basal Medium (REBM) with full supplements at 37° C. in 5% CO2 incubator as per supplier's instructions. RPTE cells were able to proliferate for 6-8 passages under the culture conditions. Cryopreservation injury: We have utilized a published cell culture model of cryopreservation injury. In brief, RPTE cells were grown to 80% confluence in the complete medium containing TUDCA or vehicle. The complete medium was then replaced with University of Wisconsin solution containing TUDCA or vehicle. The culture plates were subsequently incubated in a temperature-regulated refrigerator at 4° C. for 48 hours. To simulate warm reperfusion phase of kidney transplantation, University of Wisconsin solution was replaced with complete medium containing TUDCA or vehicle, and cells were cultured for an additional 24 hours at 37° C. We used 100 μM or 150 μM of TUDCA for these experiments. Protein extraction: Frozen kidney tissue was ground in liquid nitrogen using a pestle and mortar. […] The amount of protein present in the solution was quantified by the Bicinchoninic Acid Protein Assay kit as per manufacturer's protocol. […] The immunoblot was detected using SuperSignal West Femto Maximum Sensitivity Substrate Kit. […]

[11] = test system: human renal proximal tubular epithelial cells (RPTE); test: Cytotoxicity assay (MultiTox-Glo) in RPTE cells; assay type: cell-based; conditions: 24 hours
Procedure: as §6
(§9) Viability and Cytotoxicity Assays: Cytotoxicity and viability were determined using MultiTox-Glo Multiplex Cytotoxicity Assay kit as per manufacturer's protocols. RPTE cells were seeded in 96-well culture plates at a density of 1.2×10^4 cells per well. Subsequently, TUDCA was added to the wells to achieve final concentrations of 15, 150, 300, 450, 600, and 1200 μM. Following 24 hours of culture, to determine viability, 50 μL of GF-AFC Reagent was added to each well. The plates were gently shaken and incubated at 37° C. for 30 minutes in the dark. The cell viability was determined by measuring fluorescence at 400 nmEx/505 nmEm. Subsequently, to determine cytotoxicity, 50 μL of AAF-Glo Reagent was added to each well. The plates were shaken gently and incubated at room temperature for 15 minutes in the dark. Cytotoxicity was determined by measuring luminescence as per manufacturer's protocol.

[12] = test system: caspase-8; test: Western blot for active caspase-8 in kidney after AKI; assay type: in vivo; conditions: rat kidney after AKI, TUDCA- vs vehicle-treated rats
Procedure: as §1, §3, §4, §5

[13] = test system: rat model of AKI; test: TUNEL assay of kidney sections after AKI; assay type: in vivo
Procedure: as §1, with “surgery. […]” for “surgery.”
as §8, with “Histological examination was performed by a renal pathologist in a blinded fashion.” left out, “protocol.” for “protocol. Reagents for the PAS assay were purchased from Sigma-Aldrich (St. Louis, Mo.) and the accompanying protocol was used.”

[14] = test system: ERK1/2; test: Western blot for phosphorylated ERK1/2 in RPTE cells after cryopreservation injury; assay type: cell-based, human
Procedure: as §6, §7, §4, §5

[15] = test system: caspase-9; test: Western blot for active caspase-9 in kidney after AKI; assay type: in vivo; conditions: rat kidney after AKI, Western blot with densitometry, p<0.01
Procedure: as §1, §3, §4, §5

[16] = test system: cell culture; conditions: has been shown; cited from earlier work
[17] = test system: human renal proximal tubular epithelial cells (RPTE); test: Viability assay (MultiTox-Glo) in RPTE cells; assay type: cell-based; conditions: 15 μM to 1200 μM, 24 hours
Procedure: as §6, §9

[18] = test system: p38; test: Western blot for p38 in RPTE cells after cryopreservation injury; assay type: cell-based, human; conditions: 100 and 150 μM
Procedure: as §6, §7, §4, §5

[19] = test system: procaspase-12; test: Western blot for procaspase-12 in RPTE cells after cryopreservation injury; assay type: cell-based, human
Procedure: as §6, §7, §4, §5

[20] = TUDCA over UDCA; cited from earlier work

**Q.** With C[C@H](CCC(=O)NCCS(=O)(=O)O)[C@H]1CC[C@H]2[C@@H]3[C@@H](O)C[C@@H]4C[C@H](O)CC[C@]4(C)[C@H]3CC[C@]12C [TUDCA, tauroursodeoxycholic acid] as the molecule, how does the “elevation in blood urea levels vs vehicle group” value ([1]; days 1 (p<0.001) and 2 (p<0.01) following AKI) read?
**A.** Its value is “significantly less elevation in blood urea levels”.

**Q.** What about the “blood urea vs vehicle group” value ([1]; days 3-5 following AKI) of the same molecule?
**A.** Its value is “blood urea was lower in the TUDCA-treated rats, the difference was not statistically significant”.

**Q.** And the “amount of p-JNK” value [2]?
**A.** The value was “No difference”.

**Q.** And the “activation of caspase-12 (ER-stress pathway)” value [3]?
**A.** Its value is “no significant difference”.

**Q.** What about the “effect on JNK” value [4] of the same molecule?
**A.** Its value is “no effect”.

**Q.** And the “caspase-3 activation after cryopreservation injury” value [5]?
**A.** Its value is “significantly inhibited”.

**Q.** And the “histological injury vs vehicle-treated rats” value ([6]; deep cortex, p<0.001)?
**A.** Its value is “significantly less injury”.

**Q.** What about the “histological injury vs vehicle-treated rats” value ([6]; medulla or papilla) of the same molecule?
**A.** Its value is “no differences”.

**Q.** What about the “histological injury vs vehicle-treated rats” value ([6]; superficial cortex, p<0.05) of the same molecule?
**A.** The value was “significantly less injury”.

**Q.** What about the “caspase-9 activation after cryopreservation injury” value [7] of the same molecule?
**A.** Its value is “significantly inhibited”.

**Q.** What about the “amount of p-p38” value [8] of the same molecule?
**A.** Its value is “No difference”.

**Q.** And the “activation of ERK1/2” value [9]?
**A.** The value was “increased ERK1/2 levels in two out of three rats; also recorded: increased activation of ERK1/2 in the TUDCA group, although without statistical significance”.

**Q.** What about the “activation of procaspase-8 (death receptor pathway)” value [10] of the same molecule?
**A.** The value was “no effect”.

**Q.** And the cytotoxicity ([11]; 1200 μM, p<0.05)?
**A.** Its cytotoxicity is “cytotoxic”.

**Q.** What about the cytotoxicity ([11]; 15 to 600 μM) of the same molecule?
**A.** The cytotoxicity was “did not cause cytotoxicity”.

**Q.** And the “activation of caspase-8 (death-receptor pathway)” value [12]?
**A.** The value was “no significant difference”.

**Q.** What about the “TUNEL-positive cells vs vehicle-treated rats” value ([13]; outer strip of the outer medulla, p<0.001) of the same molecule?
**A.** Its value is “significantly less TUNEL-positive cells”.

**Q.** And the “TUNEL-positive cells vs vehicle-treated rats” value ([13]; superficial and deep cortices, p<0.05)?
**A.** Its value is “significantly less TUNEL-positive cells”.

**Q.** And the “activation of ERK1/2 (phosphorylated ERK1/2)” value ([14]; 100 μM, p<0.05)?
**A.** The value was “activated ERK1/2”.

**Q.** And the “activation of ERK1/2 (phosphorylated ERK1/2)” value ([14]; 150 μM, p<0.01)?
**A.** The value was “activated ERK1/2”.

**Q.** And the “activation of caspase-9 (mitochondrial pathway of apoptosis)” value [15]?
**A.** Its value is “significantly inhibited”.

**Q.** And the “safe concentrations in cell culture experiments” value [16]?
**A.** Its value is “safe in concentrations ranging from 100 nM up to 5 mM”.

**Q.** And the cell viability [17]?
**A.** Its cell viability is “None of the tested concentrations of TUDCA decreased cell viability”.

**Q.** And the “effect on p38” value [18]?
**A.** Its value is “no effect”.

**Q.** And the “activation of procaspase-12 (ER-stress pathway)” value [19]?
**A.** Its value is “no effect”.

**Q.** And the “solubility at physiological pH compared with UDCA” value [20]?
**A.** The value was “higher solubility at physiological pH”.
